The source of these data is PMC11053631 (Pharmaceuticals, 2024).

≈ marks a conversion by molar mass, not a printed value. Like-named read-outs stand apart in the source and are kept apart here.

Data set [1] can be described thus: Dynamic vapor sorption (DVS) hygroscopicity. In kind it is physicochemical. As to conditions: 25 °C.
Procedure: The DVS profiles of different solid forms were tested on a SMS Intrinsic instrument, UK. To make sure each sample particle size was uniform, all samples were screened at 100 mesh (ΦA = 0.148 mm). Samples of 10–20 mg were used in the experiments. The DVS data were collected in an RH range of 0–95%. If the sample mass changes by less than 0.02% in 60 min, the next RH is conducted in a 5% step.
Data set [2] is described as follows: Powder dissolution in SGF and SIF. The format is physicochemical. As to conditions: for solubility at 180 min: thermodynamic from solid, 50 rpm, read-out: maximum solubility. As for the experimental part:
CUR-L-CN dissolves quickly and reaches its maximum concentration in 20 min. […] To understand this phenomenon, the residual powders after dissolution experiments were filtered and dried for PXRD analysis.
A mini bath dissolution device was used in the experiments, and a Julabo-5 heater was equipped for heating. The experiments were conducted at 37 °C with a rotational speed of 50 rpm. […] The dissolution rate experiments were measured in SGF and SIF containing 0.5% tween 80. SGF was prepared by diluting 16.4 mL of 10% HCl solution to 1000 mL with pure water. To prepare SIF, 6.8 g of KH2PO4 was dissolved in 500 mL of water; then, the pH was adjusted to 6.8 with NaOH solution with a concentration of 0.1 mol/L. At specified time points, i.e., 5 min, 10 min, 15 min, 20 min, 25 min, 30 min, 40 min, 50 min, 60 min, 90 min, 120 min, and 180 min, 0.5 mL of solution was withdrawn with a syringe. The collected solution was filtered through a 0.45 µm nylon filter and then subjected to HPLC determination. The dissolution studies of each solid form were conducted in triplicate (n = 3). After dissolution experiments, the residual samples were filtered and dried under vacuum for PXRD analysis.
The equipment has a diode array detector. An Agilent Zorbax Eclipse Plus C18 column was used in the experiments; it has a diameter of 4.6 mm, a length of 150 mm, and a filling aperture of 5 µm. The mobile phase contained 52% glacial acetic acid (4%) aqueous solution and 48% acetonitrile. The column temperature was set as 35 °C, and the UV-vis wavelength was set to 430 nm. A 10 µL sample was injected each time and the flow rate of the mobile phase was aet as 1 mL/min.

A short description of data set [3]: Wettability test by film flotation. In kind it is physicochemical. The procedure: To confirm the hypothesis given in the section discussing […] surface analysis, wettability tests using film flotation methods were conducted in SGF with/without surfactants. […] The wettability test was performed in pure SGF and SGF with 0.1% sodium dodecyl sulfonate (SDS) or tween 80 using film flotation methods.

Data set [4] is described as follows: Oral pharmacokinetic study in rats. The format is in vivo. As to conditions: Sprague Dawley, rat, fasted male rats, oral 200 mg/kg in soybean oil, plasma treated with β-glucuronidase/sulfatase. The procedure: The in vivo pharmacokinetic investigations of the CUR-L-CN co-crystal and the marketed CUR crystal were carried out in fasted male rats. In vivo, CUR is easily conjugated, and it can be conjugated with glucuronic acid and sulfate to form monoglucuronides, monosulfates, and mixed glucuronide/sulfates.
After administration, approximately 0.4 mL of blood was collected from the orbit of the rats into heparinized tubes at 20 min, 40 min, 1 h, 1.5 h, 2.5 h, 4 h, 6 h, and 8 h. Plasma samples (100 μL) were precisely aspirated and vortexed with 50 μL of β-glucuronidase and sulfatase buffer at 37 °C for 60 min. Plasma samples were protein precipitated by adding 0.45 mL of methanol (0.2% acetic acid). After 10 min of shaking, the samples were centrifuged at 14,000 rpm for 3 min. Subsequently, the supernatants were analyzed via HPLC/MS. All experimental procedures were approved by the Animal Ethics Committee.
HPLC methods and conditions were the same as 4.13. A 10 µL sample was injected each time, and the flow rate of the mobile phase was set as 0.6 mL/min.
The AUC0–t was calculated from plasma concentrations observed from 0 to 8 h using a linear trapezoidal approach.

For data set [5] the following is noted: rats, intravenous and oral administration; cited from earlier work.
Details of data set [6]: method as in U.S. Expert Review Board. As to conditions: adults; ref U.S. Expert Review Board; cited from earlier work.

Usually solubility stands for how much of the substance goes into solution per volume. Consider `COc1cc(/C=C/C(=O)CC(=O)/C=C/c2ccc(O)c(OC)c2)ccc1O` [CUR, Curcumin], for which, in data set [1] (during 0%-95% RH), the mass change result is “nearly no mass change”. Moreover, in data set [2] (powder dissolution, 37 °C), the “time to reach maximum concentration in dissolution” value is on record as “continues to increase over 180 min”. For the same compound, the solubility at 180 min in data set [2] (simulated gastric fluid (SGF) with 0.5% tween 80, aqueous with cosolvent or surfactant or cyclodextrin, SGF containing 0.5% tween 80, 37 °C) is 48.2 µg/mL (≈ 131 µM); in data set [2] (simulated intestinal fluid (SIF) with 0.5% tween 80, aqueous with cosolvent or surfactant or cyclodextrin, SIF pH 6.8 containing 0.5% tween 80, 37 °C), 24.5 µg/mL (≈ 66.5 µM). The “wettability (powder sinking)” value in data set [3] (SGF containing 0.1% SDS, after 10 min) is recorded as “only a small quantity of CUR had sunk”; in data set [3] (SGF without surfactant), “could not sink into the fluid”. The compound further showed a Cmax in data set [4] of 67.9 ng/mL. The Tmax in data set [4] is 1.5 h. For the same compound, the AUC(0-t) in data set [4] (0 to 8 h, read-out: AUC0–8) turned out to be 110 ng·h/mL. In addition, the oral bioavailability result in data set [5] is given as “about 1%”.

In data set [1] (at 40% RH), `C[N+](C)(C)C[C@H](O)CC(=O)[O-]` [L-CN, L-carnitine] registered a water uptake of 39.9%. Further, in data set [1] (at 95% RH), the “water uptake / water content” value was 174.2%. Also, in data set [1] (when RH decreases to 0%), the “water that cannot be removed” value is 23.6%. For the same compound, the “dose rated as safe as nutritional supplement” value in data set [6] is listed as 20 mg/kg/day.
